Experimental data published in article PMC9481563, “Structural insights into the pSer/pThr dependent regulation of the SHP2 tyrosine phosphatase in insulin and CD28 signaling” (Nature Communications, 2022).
Entries after “also recorded” stand apart in the source; their conditions may differ.

What was measured:
SHP2 = SHP2 substrate sites, cutoff > 0.5 for genuine substrates; ref [1] Barr AJ et al., Cell 136, 352-63 (2009); cited from earlier work
From the text: page 80: Supplementary tables Peptide name Sequence Activity (Arb. u.) CADH2-Y785 […] 0.7 ERBB2-Y1248 […]- 0.6 PGFRB-Y751 […] 1 LCK-Y394 […] 1.3 CSK-Y184 […] 1.5 GHR-Y487 […] 0.8 TIE2-Y816 […] 1.2 ERBB2-Y1139 […] 1.2 WASP-Y290 […] 0.6 PAXI-Y118 […] 0.8 Supplementary table 1. SHP2 substrate sites derived from a large-scale comparative study with quantitative results. A cutoff of > 0.5 was applied to separate genuine SHP2 substrates from spurious signals. ...

[1] = system: tyrosine kinase domain of the human insulin receptor (InsR); assay: Capillary electrophoresis phosphorylation assay, InsR kinase domain; assay type: biochemical; conditions: CE assay, effect of pSer vs non-phosphorylated peptide of the pair; 1 mM ATP, pH 7.5; n = 1
Experimental: Ni-NTA purified stocks were subjected to anion exchange chromatography using an Äkta explorer instrument (Amersham Pharmacia) and Resource Q columns (GE healthcare). Prior to anion exchange, all proteins were dialyzed overnight against a low salt buffer (10–50 mM NaCl, 20 mM TRIS [pH = 8.0], 10% glycerol and 1 mM 1,4-dithiothreitol [DTT]) using a Servapor MWCO 12,000–14,000 membrane. Proteins loaded onto the column were eluted using a salt gradient up to 1 M NaCl over 30 min. Purity of proteins was assessed by SDS-PAGE and final samples were typically found to have >95% purity (see Supplementary figs. 85, 86). The protein aliquots were snap-frozen in liquid nitrogen and stored in −80 °C. […]
Phosphorylation and dephosphorylation assays with peptides were performed using capillary electrophoresis on an Agilent Capillary Electrophoresis ^3DCE system (Agilent Technologies, Waldbronn, Germany) applying DB-WAX coated silica capillary having a 33.5 cm total and 25 cm effective length with 50 μm I.D. (Agilent Technologies, Santa Clara, CA, USA). On-line absorption at 200 nm was monitored by DAD UV-Vis detector. […] Kinetic curves in the article are always presented with exponential fits (that approximate the integrated Michaelis-Menten functions decently on the measured time intervals).

[2] = system: wild-type SHP2 catalytic domain; assay: Capillary electrophoresis dephosphorylation assay, SHP2 catalytic domain; assay type: biochemical, human; conditions: for % nominal product: WT-SHP2 catalytic domain
Experimental: Phosphorylation and dephosphorylation assays with peptides were performed using capillary electrophoresis on an Agilent Capillary Electrophoresis ^3DCE system (Agilent Technologies, Waldbronn, Germany) applying DB-WAX coated silica capillary having a 33.5 cm total and 25 cm effective length with 50 μm I.D. (Agilent Technologies, Santa Clara, CA, USA). On-line absorption at 200 nm was monitored by DAD UV-Vis detector. The capillary was thermostated at 25 °C. Before measurements the capillary was rinsed subsequently with distilled water for 15 min and between measurements with BGE (100 mM trimethylamine-phosphate buffer (pH 2.5)) for 3 min. Samples were injected by 5 × 103 Pa pressure for 6 s. Runs were performed in the positive-polarity mode with 20 kV. […] The reaction was initialized by addition of the phosphatase enzyme. Kinase reactions were realized with the following buffer: 20 mM potassium phosphate (monobasic), 15 mM sodium phosphate (dibasic), 100 mM NaCl, 5 mM MgCl2, 5% glycerol, 0,05% non-ionic detergent IGEPAL, pH 7.5; reaction was started with the addition of 1 mM of ATP. Sampling from reactions was done in real time, except when conditions required pre-concentration of samples (with PTP1B only). In the latter case, reactions were run in 15 ml Falcon tubes, using an NH4HCO3-based buffer (100 mM end concentration), with 5 nM enzyme. After heat inactivation (10 min at 75 °C), the latter samples were lyophilized until dry and reconstituted in 40 ul distilled H2O. Kinetic curves in the article are always presented with exponential fits (that approximate the integrated Michaelis-Menten functions decently on the measured time intervals).

[3] = system: HEK293T cells co-transfected with IRS1-FLAG (wild-type or Ser/Ala mutant) and constitutive active SHP2; assay: Cell-based IRS1 Y612 phosphorylation assay (western blot) after insulin; design: species or system human
Experimental: HEK293T cells (#CRL-3216 ATCC, Manassas, VA USA) were maintained in DMEM (#41966029 Gibco, Waltham MA USA) supplemented with 10% FBS (#10500064 Gibco), 1% penicillin-streptomycin (#P0781-100ML Sigma, St. Louis MI USA) and 0.1% Amphotericin B (#15290026 Gibco). Cells were plated into 24-well plates in 7.5 × 10^4/well concentration and co-transfected with wild-type or Ser/Ala mutant pcDNA3.1-IRS1-FLAG and constitutive active pcDNA3.1-SHP2 plasmids using Lipofectamine 3000 (#L3000008 Invitrogen) reagent following the manufacturer’s instruction. After overnight serum-starvation cells were treated with 1 µM insulin (I9278, Sigma) for 0–30 min and harvested in Western sample buffer. Samples were run in 4–20% gradient gel (#4561096 BioRad, Hercules, CA USA) and transferred to nitrocellulose membrane using Transblot-Turbo System (#1704271 BioRad). Membranes were incubated in 1:5000 M2 anti-FLAG (#1804-200UG Sigma) and 1:1000 anti-pY612-IRS1 (#44-816 G Invitrogen) overnight and labelled with 1:10000 IRDye anti- mouse 680 (#92668070 LICOR Biosciences, Lincoln, NE USA) and 1:10.000 IRDye anti- rabbit 800 […] (#92632211 LICOR Biosciences) secondary antibodies. Membranes were scanned using the Odyssey CLx Fluorescence Imaging System (LICOR Biosciences, v5.2.5.).

[4] = 19 min, average of 3 replicates
[5] = 35 min, average of 3 replicates

Substance: ARLIEDNEYTAREGAKF [LCK-Y394, SHP2 substrate site peptide from a large-scale comparative study]
- Activity (Arb. u.) (SHP2): 1.3 Arb. u.

Substance: DAETSKLIYDFIEDQGG [WASP-Y290, SHP2 substrate site peptide from a large-scale comparative study]
- Activity (Arb. u.) (SHP2): 0.6 Arb. u.

Substance: GGGEEDQDYDLSQLQQP [CADH2-Y785, SHP2 substrate site peptide from a large-scale comparative study]
- Activity (Arb. u.) (SHP2): 0.7 Arb. u.

Substance: GRKGSGDYMPM{pSer}PKS [0pIRS1, IRS1 Y632 peptide with pSer only, InsR kinase substrate]
- tyrosine phosphorylation by InsR kinase (in words) [1]: failed to indicate any major effect; also recorded: altered kinetics to a very limited degree

Substance: HPPEPKSPGE{pTyr}VNIEFGS [p0Rev-IRS1, IRS1 Y896 peptide, phosphotyrosine-only, used for dephosphorylation assays]
- % nominal product [2, 4]: 2.9%
- % nominal product ([2]; 19 min, replicate 01): 4.9%
- % nominal product ([2]; 19 min, replicate 02): 4.1%
- % nominal product ([2]; 19 min, replicate 03): -0.2%
- % nominal product [2, 5]: 2.1%
- % nominal product ([2]; 35 min, replicate 01): 2.3%
- % nominal product ([2]; 35 min, replicate 02): 1.9%
- % nominal product ([2]; 35 min, replicate 03): 2.2%
- % nominal product ([2]; 51 min, replicate 01): 8.3%
- % nominal product ([2]; 51 min, replicate 02): 2.0%
- % nominal product ([2]; 51 min, replicate 03): 1.3%

Substance: HPPEPK{pSer}PGEYVNIEFGS [0pRev-IRS1, IRS1 Y896 motif peptide with −4 pSer only]
- tyrosine phosphorylation by InsR kinase (in words) [1]: altered kinetics to a very limited degree; also recorded: no major differences

Substance: HPPEPK{pSer}PGE{pTyr}VNIEFGS [ppRev-IRS1, IRS1 Y896 peptide with pSer in addition to pTyr, for dephosphorylation assays]
- tyrosine dephosphorylation rate (in words) ([2]; CE assay, substrate 50 μM, enzyme 25 nM, 50 mM TRIS, 150 mM NaCl, 1 mM EDTA, 2 mM DTT, IGEPAL 0.1%, pH 7.4): superior reaction rates; also recorded: greatly enhanced
- % nominal product [2, 4]: 47.8%
- % nominal product ([2]; 19 min, replicate 01): 47.7%
- % nominal product ([2]; 19 min, replicate 02): 59.3%
- % nominal product ([2]; 19 min, replicate 03): 36.5%
- % nominal product [2, 5]: 52.8%
- % nominal product ([2]; 35 min, replicate 01): 58.7%
- % nominal product ([2]; 35 min, replicate 02): 60.4%
- % nominal product ([2]; 35 min, replicate 03): 39.2%
- % nominal product ([2]; 51 min, average of 3 replicates): 55.2%
- % nominal product ([2]; 51 min, replicate 01): 60.3%
- % nominal product ([2]; 51 min, replicate 02): 61.2%
- % nominal product ([2]; 51 min, replicate 03): 44.1%

Substance: KNNPDPTIYPVLDWNDI [TIE2-Y816, SHP2 substrate site peptide from a large-scale comparative study]
- Activity (Arb. u.) (SHP2): 1.2 Arb. u.

Substance: LTCSPQPEYVNQPDVRP [ERBB2-Y1139, SHP2 substrate site peptide from a large-scale comparative study]
- Activity (Arb. u.) (SHP2): 1.2 Arb. u.

Substance: MSKDESVDYVPMLDMKG [PGFRB-Y751, SHP2 substrate site peptide from a large-scale comparative study]
- Activity (Arb. u.) (SHP2): 1 Arb. u.

Substance: RVGEEEHVYSFPNKQKS [PAXI-Y118, SHP2 substrate site peptide from a large-scale comparative study]
- Activity (Arb. u.) (SHP2): 0.8 Arb. u.

Substance: SSLSNIDFYAQVSDITP [GHR-Y487, SHP2 substrate site peptide from a large-scale comparative study]
- Activity (Arb. u.) (SHP2): 0.8 Arb. u.

Substance: TPTAENPEYLGLDVPV- [ERBB2-Y1248, SHP2 substrate site peptide from a large-scale comparative study]
- Activity (Arb. u.) (SHP2): 0.6 Arb. u.

Substance: TVAAQDEFYRSGWALNM [CSK-Y184, SHP2 substrate site peptide from a large-scale comparative study]
- Activity (Arb. u.) (SHP2): 1.5 Arb. u.

Substance: wt
- pY612-IRS1/FLAG ratio, Median value ([3]; Supp Fig 13, baseline analysis, median of 12): 0.0394
- pY612-IRS1/FLAG ratio, Median value ([3]; Supp Fig 13, time course analysis, 0 min, median of 10): 0.0379
- pY612-IRS1/FLAG ratio, Median value ([3]; Supp Fig 13, time course analysis, 15 min, median of 10): 0.4550
- pY612-IRS1/FLAG ratio, Median value ([3]; Supp Fig 14, baseline analysis, median of 3): 0.0140
